Tests used:
Assay type in all cases: physicochemical
[1] = Stability of compound in TRIS buffer at pH 8 assessed as compound conversion in presence of DTT measured for 2 to 90 mins by LC-MS analysis; conditions: time 2-90 min
[2] = Stability of compound in TRIS buffer at pH 8 assessed as compound conversion in presence of DTT measured after 15 mins by LC-MS analysis; conditions: TRIS buffer with DTT, read-out: Drug metabolism
[3] = Stability of compound in TRIS buffer at pH 8 assessed as compound conversion in presence of DTT measured after 90 mins by LC-MS analysis; conditions: TRIS buffer with DTT, read-out: Drug metabolism

Stability [1]	degraded at 0.25 h [2] [%]	degraded at 1.5 h [3] [%]	SMILES
Unstable	60	100	Nc1ncnc2c1ncn2[C@@H]1O[C@H](CN(CC[C@H](N)C(=O)O)S(=O)(=O)c2ccc(Br)c([N+](=O)[O-])c2)[C@@H](O)[C@H]1O
Unstable	–	–	Nc1ncnc2c1ncn2[C@@H]1O[C@H](CN(CC[C@H](N)C(=O)O)S(=O)(=O)c2ccc(F)c([N+](=O)[O-])c2)[C@@H](O)[C@H]1O
Unstable	60	100	Nc1ncnc2c1ncn2[C@@H]1O[C@H](CN(CC[C@H](N)C(=O)O)S(=O)(=O)c2ccc(Cl)c([N+](=O)[O-])c2)[C@@H](O)[C@H]1O

Source: ChEMBL document CHEMBL5247681, “Covalent S-Adenosylhomocysteine-Based DNA Methyltransferase 2 Inhibitors with a New Type of Aryl Warhead” (ACS Med Chem Lett, 2023)
